According to patent US11077115B2, “Rorgamma modulators and uses thereof” (Genfit, priority 2017, dated 2021):
Where a name gives a salt, the structure may show the parent alone.

Target: T1, human RORγt (Homo sapiens, UniProt P51449)
T1 sequence (P51449 1-497 isoform P51449-2): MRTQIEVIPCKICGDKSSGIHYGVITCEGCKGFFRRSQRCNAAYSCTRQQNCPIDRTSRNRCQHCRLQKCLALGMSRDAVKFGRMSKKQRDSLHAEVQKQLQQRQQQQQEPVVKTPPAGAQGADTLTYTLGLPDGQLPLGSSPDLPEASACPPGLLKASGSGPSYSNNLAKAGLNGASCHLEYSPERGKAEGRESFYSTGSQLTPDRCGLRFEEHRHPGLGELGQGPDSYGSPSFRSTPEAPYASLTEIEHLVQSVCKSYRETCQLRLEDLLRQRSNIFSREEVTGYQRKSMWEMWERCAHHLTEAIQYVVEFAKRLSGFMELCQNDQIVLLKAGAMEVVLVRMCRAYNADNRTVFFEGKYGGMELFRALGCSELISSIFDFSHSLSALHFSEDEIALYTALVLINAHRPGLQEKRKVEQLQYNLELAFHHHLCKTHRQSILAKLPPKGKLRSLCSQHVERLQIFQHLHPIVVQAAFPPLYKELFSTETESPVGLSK
Assay: RORE Luciferase/RORγt transactivation assay (IL-17 promoter luciferase reporter in COS-7 cells)
Type: cell-based
Parameters: V5-His (named only through the vector pcDNA3.1D/V5-His-TOPO); expressed in transfected cells; host or cells: COS-7 (monkey kidney)
Details: RORγt activity inhibition, luciferase activity in transfected COS-7 cells, 20 h
Protocol: It is well known that RORγ binds to a conserved non-coding sequence (CNS) enhancer element in the IL-17 promoter.
Culture medium was changed every 2 days.
The 4.3 Kb human IL-17 promoter containing the RORγ-specific CNS enhancer element was PCR amplified from human genomic DNA and cloned into a pGL3-TKLuc2Cp reporter plasmid.
The luciferase reporter plasmid and the RORγt overexpression plasmid were transfected into COS-7 cell line using 4 μL JetPEI™/μg of DNA. Briefly, 150 ng of DNA (ration 1/2 between RORE-Tk Luc2Cp and cDNA RORγt or the empty vector for the negative control) was served to transfect adherent COS-7 cells in a […] culture flask, in complete medium (see cos-7 cell line culture).
Cells were then detached (using trypsin) and washed by centrifugation at 300 g for 10 minutes. Cell pellet was resuspended in serum free/phenol red free DMEM and seeded in 384 well plates at a density of 10000 cells/well and then incubated for 4 h at 37° C.
Compounds were dissolved in 100% DMSO to obtain 10 mM stock solutions. For each compound, test concentrations were diluted in serum free/phenol red free DMEM using the Genesis Freedom 200™ (TECAN) and added to the cells to obtain a 0.3% DMSO final concentration (in a final volume of 40 μL per well).
The luciferase activity was then measured with 40 μL/well steady-Glo Luciferase assay system (Promega, Madison, Wis.) and after incubation at room temperature for 30 minutes. The luminescence was estimated using the Ultra384 reader (TECAN). Data were collected and analyzed using GraphPad Prism software (GraphPad Software V5.02, San Diego Calif. USA). IC50 in μM and E max in % were reported for each compound.
An IC50 of 1000 to 10000 nM was found for `Cc1ccc(C(NC(=O)Cc2cnc(N3CCS(=O)(=O)CC3)nc2)c2ccc(C)o2)c(C(F)(F)F)c1` (centres unmarked) [Cpd. 33, 2-[2-(1,1-dioxo-1-thiomorpholin-4-yl)pyrimidin-5-yl]-N-{[4-methyl-2-(trifluoromethyl)phenyl](5-methylfuran-2-yl)methyl}acetamide] in this work.
An IC50 of 1000 to 10000 nM was found for `Cc1ccc(C(NC(=O)Cc2cnc(N3CCS(=O)(=O)CC3)nc2)c2ccc(Cl)cc2Cl)o1` (centres unmarked) [Cpd. 50, N-[(2,4-dichlorophenyl)(5-methylfuran-2-yl)methyl]-2-[2-(1,1-dioxo-1-thiomorpholin-4-yl)pyrimidin-5-yl]acetamide] in this work.
An IC50 of less than 100 nM was found for `Cc1ccc(C(NC(=O)Cc2ccc(N3CCS(=O)(=O)CC3)c(O)c2)c2ccc(C)o2)c(N2CCCCC2)c1` (centres unmarked) [Cpd. 61, 2-[4-(1,1-dioxo-1-thiomorpholin-4-yl)-3-hydroxyphenyl]-N-{[4-methyl-2-(piperidin-1-yl)phenyl](5-methylfuran-2-yl)methyl}acetamide] in this work.
An IC50 of 100 to 1000 nM was found for `COCc1ccc(CC(=O)NC(c2ccc(C)o2)c2ccc(C)cc2N2CCCCC2)cc1N1CCS(=O)(=O)CC1` (centres unmarked) [Cpd. 62, 2-[3-(1,1-dioxo-1-thiomorpholin-4-yl)-4-(methoxymethyl)phenyl]-N-{[4-methyl-2-(piperidin-1-yl)phenyl](5-methylfuran-2-yl)methyl}acetamide] in this work.
An IC50 of 100 to 1000 nM was found for `Cc1ccc(C(NC(=O)Cc2ccc(CO)c(N3CCS(=O)(=O)CC3)c2)c2ccc(C)o2)c(N2CCCCC2)c1` (centres unmarked) [Cpd. 63, 2-[3-(1,1-dioxo-1-thiomorpholin-4-yl)-4-(hydroxymethyl)phenyl]-N-{[4-methyl-2-(piperidin-1-yl)phenyl](5-methylfuran-2-yl)methyl}acetamide] in this work.
An IC50 of 100 to 1000 nM was found for `Cc1ccc(C(NC(=O)C2(c3ccc(N4CCS(=O)(=O)CC4)cn3)CC2)c2ccc(C)o2)c(C)c1` (centres unmarked) [Cpd. 73, N-[(2,4-dimethylphenyl)(5-methylfuran-2-yl)methyl]-1-[5-(1,1-dioxo-1-thiomorpholin-4-yl)pyridin-2-yl]cyclopropane-1-carboxamide] in this work.

System: not given
Assay: not given
Details: not given
A melting point of 202 °C was found for `O=C(Cc1ccc(N2CCS(=O)(=O)CC2)cc1)NC(c1ccccc1)c1ccccc1N1CCCCC1` (centres unmarked) (as salt: HCl) [Cpd. 1, 2-[4-(1,1-dioxo-1-thiomorpholin-4-yl)phenyl]-N-{phenyl[2-(piperidin-1-yl)phenyl]methyl}acetamide] in this work.
A melting point of 188 °C was found for `Cc1ccc(N2CCS(=O)(=O)CC2)cc1CC(=O)NC(c1ccccc1)c1ccccc1N1CCCCC1` (centres unmarked) (as salt: HCl) [Cpd. 2, 2-[5-(1,1-dioxo-1-thiomorpholin-4-yl)-2-methylphenyl]-N-{phenyl[2-(piperidin-1-yl)phenyl]methyl}acetamide] in this work.
A melting point of 184 °C was found for `O=C(Cc1cc(N2CCS(=O)(=O)CC2)ccc1F)NC(c1ccccc1)c1ccccc1N1CCCCC1` (centres unmarked) (as salt: HCl) [Cpd. 3, 2-[5-(1,1-dioxo-1-thiomorpholin-4-yl)-2-fluorophenyl]-N-{phenyl[2-(piperidin-1-yl)phenyl]methyl}acetamide] in this work.
A melting point of 207 °C was found for `Cc1ccc(C(NC(=O)Cc2cc(N3CCS(=O)(=O)CC3)ccc2F)c2ccccc2)c(N2CCOCC2)c1` (centres unmarked) (as salt: HCl) [Cpd. 4, 2-[5-(1,1-dioxo-1-thiomorpholin-4-yl)-2-fluorophenyl]-N-{[4-methyl-2-(morpholin-4-yl)phenyl](phenyl)methyl}acetamide] in this work.
A melting point of 101 °C was found for `Cc1ccc(C(NC(=O)Cc2cc(N3CCS(=O)(=O)CC3)ccc2C)c2ccc(C)o2)c(N2CCCCC2)c1` (centres unmarked) (as salt: HCl) [Cpd. 5, 2-[5-(1,1-dioxo-1-thiomorpholin-4-yl)-2-methylphenyl]-N-{[4-methyl-2-(piperidin-1-yl)phenyl](5-methylfuran-2-yl)methyl}acetamide] in this work.
A melting point of 101 °C was found for `Cc1ccc(C(NC(=O)Cc2ccc(N3CCS(=O)(=O)CC3)cc2)c2ccc(C)o2)c(N2CCCCC2)c1` (centres unmarked) (as salt: HCl) [Cpd. 6, 2-[4-(1,1-dioxo-1-thiomorpholin-4-yl)phenyl]-N-{[4-methyl-2-(piperidin-1-yl)phenyl](5-methylfuran-2-yl)methyl}acetamide] in this work.
A melting point of 219 °C was found for `Cc1ccc(C(NC(=O)Cc2cc(N3CCS(=O)(=O)CC3)ccc2C)c2ccccc2)c(N2CCOCC2)c1` (centres unmarked) (as salt: HCl) [Cpd. 7, 2-[5-(1,1-dioxo-1-thiomorpholin-4-yl)-2-methylphenyl]-N-{[4-methyl-2-(morpholin-4-yl)phenyl](phenyl)methyl}acetamide] in this work.
A melting point of 82 °C was found for `Cc1ccc(C(NC(=O)Cc2cc(N3CCOCC3)ccc2F)c2ccccc2)c(N2CCCCC2)c1` (centres unmarked) (as salt: HCl) [Cpd. 8, 2-[2-fluoro-5-(morpholin-4-yl)phenyl]-N-{[4-methyl-2-(piperidin-1-yl)phenyl](phenyl)methyl}acetamide] in this work.
A melting point of 142 °C was found for `Cc1ccc(C(NC(=O)Cc2ccc(N3CCS(=O)(=O)CC3)cc2)c2ccccc2)c(Br)c1` (centres unmarked) (as salt: HCl) [Cpd. 9, N-[(2-bromo-4-methylphenyl)(phenyl)methyl]-2-[4-(1,1-dioxo-1-thiomorpholin-4-yl)phenyl]acetamide] in this work.
A melting point of 99 °C was found for `Cc1ccc(C(NC(=O)Cc2ccc(N3CCS(=O)(=O)CC3)c(C)c2)c2ccc(C)o2)c(C(F)(F)F)c1` (centres unmarked) (as salt: HCl) [Cpd. 10, 2-[4-(1,1-dioxo-1-thiomorpholin-4-yl)-3-methylphenyl]-N-{[4-methyl-2-(trifluoromethyl)phenyl](5-methylfuran-2-yl)methyl}acetamide] in this work.
A melting point of 110 °C was found for `Cc1ccc(C(NC(=O)Cc2ccc(N3CCS(=O)(=O)CC3)c(C)c2)c2ccc(C)o2)c(Br)c1` (centres unmarked) (as salt: HCl) [Cpd. 11, N-[(2-bromo-4-methylphenyl)(5-methylfuran-2-yl)methyl]-2-[4-(1,1-dioxo-1-thiomorpholin-4-yl)-3-methylphenyl]acetamide] in this work.
A melting point of 97 °C was found for `Cc1ccc(C(NC(=O)Cc2ccc(N3CCS(=O)(=O)CC3)c(C)c2)c2ccc(C)o2)c(N2CCCCC2)c1` (centres unmarked) (as salt: HCl) [Cpd. 12, 2-[4-(1,1-dioxo-1-thiomorpholin-4-yl)-3-methylphenyl]-N-{[4-methyl-2-(piperidin-1-yl)phenyl](5-methylfuran-2-yl)methyl}acetamide] in this work.
A melting point of 101 °C was found for `COc1ccc(C(NC(=O)Cc2ccc(N3CCS(=O)(=O)CC3)c(C)c2)c2ccc(C)o2)c(N2CCC(C)CC2)c1` (centres unmarked) (as salt: HCl) [Cpd. 13, 2-[4-(1,1-dioxo-1-thiomorpholin-4-yl)-3-methylphenyl]-N-{[4-methoxy-2-(4-methylpiperidin-1-yl)phenyl](5-methylfuran-2-yl)methyl}acetamide] in this work.
A melting point of 106 °C was found for `COc1ccc(C(NC(=O)Cc2ccc(N3CCS(=O)(=O)CC3)c(C)c2)c2ccc(C)o2)c(N2CCC(C(F)(F)F)CC2)c1` (centres unmarked) (as salt: HCl) [Cpd. 14, 2-[4-(1,1-dioxo-1-thiomorpholin-4-yl)-3-methylphenyl]-N-({4-methoxy-2-[4-(trifluoromethyl)piperidin-1-yl]phenyl}(5-methylfuran-2-yl)methyl)acetamide] in this work.
A melting point of 98 °C was found for `COc1ccc(C(NC(=O)Cc2ccc(N3CCS(=O)(=O)CC3)c(C)c2)c2ccc(C)o2)c(N(C)C)c1` (centres unmarked) (as salt: HCl) [Cpd. 15, N-{[2-(dimethylamino)-4-methoxyphenyl](5-methylfuran-2-yl)methyl}-2-[4-(1,1-dioxo-1-thiomorpholin-4-yl)-3-methylphenyl]acetamide] in this work.
A melting point of 103 °C was found for `COc1ccc(C(NC(=O)Cc2ccc(N3CCS(=O)(=O)CC3)c(C)c2)c2ccc(C)o2)c(N2CC3CC3C2)c1` (centres unmarked) (as salt: HCl) [Cpd. 16, N-[(2-{3-azabicyclo[3.1.0]hexan-3-yl}-4-methoxyphenyl)(5-methylfuran-2-yl)methyl]-2-[4-(1,1-dioxo-1-thiomorpholin-4-yl)-3-methylphenyl]acetamide] in this work.
A melting point of 159 °C was found for `Cc1ccc(N2CCCCC2)c(C(NC(=O)Cc2cnc(N3CCS(=O)(=O)CC3)nc2)c2ccc(C)o2)c1` (centres unmarked) (as salt: HCl) [Cpd. 17, 2-[2-(1,1-dioxo-1-thiomorpholin-4-yl)pyrimidin-5-yl]-N-{[5-methyl-2-(piperidin-1-yl)phenyl](5-methylfuran-2-yl)methyl}acetamide] in this work.
